The source made the active and inactive calls. The rule behind the calls is not given here.
Tests used:
[1] = system: A549; test: Synergistic growth inhibition of ALK-negative human A549 cells assessed as combination index at compound:ceritinib concentration ratio of 1:1 and fractional effect of 0.76 in presence of ceritinib by Chou-Talalay method; format: functional
[2] = Cytotoxicity against EML4-ALK-positive human CCL185IG cells assessed as cell growth inhibition by Chou-Talalay method; format: functional
[3] = system: A549; test: Cytotoxicity against ALK-negative human A549 cells assessed as cell growth inhibition by Chou-Talalay method; format: functional
[4] = Synergistic growth inhibition of EML4-ALK-positive human CCL185IG cells assessed as combination index at compound:ceritinib concentration ratio of 1:1 and fractional effect of 0.5 in presence of ceritinib by Chou-Talalay method; format: functional
[5] = Cytotoxicity against EML4-ALK-positive human CCL185IG cells harboring wild type PI3KCA and CDKN2A and KRAS mutations assessed as cell growth inhibition measured after 72 hrs by MTT assay; format: functional
[6] = system: A549; test: Synergistic growth inhibition of ALK-negative human A549 cells assessed as combination index at compound:ceritinib concentration ratio of 1:1 and fractional effect of 0.25 in presence of ceritinib by Chou-Talalay method; format: functional
[7] = system: A549; test: Synergistic growth inhibition of ALK-negative human A549 cells assessed as combination index at compound:ceritinib concentration ratio of 1:1 and fractional effect of 0.96 in presence of ceritinib by Chou-Talalay method; format: functional
[8] = Synergistic growth inhibition of EML4-ALK-positive human CCL185IG cells assessed as combination index at compound:ceritinib concentration ratio of 1:1 and fractional effect of 0.96 in presence of ceritinib by Chou-Talalay method; format: functional
[9] = system: A549; test: Cytotoxicity against ALK-negative human A549 cells harboring wild type PI3KCA and CDKN2A and KRAS mutations assessed as cell growth inhibition measured after 72 hrs by MTT assay; format: functional; settings: A549, 72 h
[10] = system: A549; test: Synergistic growth inhibition of ALK-negative human A549 cells assessed as combination index at compound:ceritinib concentration ratio of 1:1 and fractional effect of 0.5 in presence of ceritinib by Chou-Talalay method; format: functional
[11] = Synergistic growth inhibition of EML4-ALK-positive human CCL185IG cells assessed as combination index at compound:ceritinib concentration ratio of 1:1 and fractional effect of 0.25 in presence of ceritinib by Chou-Talalay method; format: functional
[12] = Synergistic growth inhibition of EML4-ALK-positive human CCL185IG cells assessed as combination index at compound:ceritinib concentration ratio of 1:1 and fractional effect of 0.76 in presence of ceritinib by Chou-Talalay method; format: functional
[13] = Half life in phosphate buffer and DMSO supplemented with 4% bovine serum albumin at pH 6.5 by HPLC analysis; format: physicochemical; settings: phosphate buffer and DMSO with 4% bovine serum albumin
[14] = Half life in rat plasma; format: ADME, cell-free
[15] = Drug degradation in rat plasma assessed as compound hydrolysis with first order rate constant; format: ADME, cell-free
[16] = Half life in phosphate buffer and DMSO supplemented with 4% bovine serum albumin at pH 7.4 by HPLC analysis; format: physicochemical; settings: phosphate buffer and DMSO with 4% bovine serum albumin
[17] = Hydrolytic stability in phosphate buffer and DMSO supplemented with 4% bovine serum albumin assessed as rate constant at pH 6.5 by HPLC analysis
[18] = Hydrolytic stability in phosphate buffer and DMSO supplemented with 4% bovine serum albumin assessed as rate constant at pH 7.4 by HPLC analysis
[19] = target: ALK tyrosine kinase receptor (Homo sapiens) (UniProt Q9UM73); settings: 500 nM
Sequence of ALK tyrosine kinase receptor (Homo sapiens) (Q9UM73 19-1620 limits assumed): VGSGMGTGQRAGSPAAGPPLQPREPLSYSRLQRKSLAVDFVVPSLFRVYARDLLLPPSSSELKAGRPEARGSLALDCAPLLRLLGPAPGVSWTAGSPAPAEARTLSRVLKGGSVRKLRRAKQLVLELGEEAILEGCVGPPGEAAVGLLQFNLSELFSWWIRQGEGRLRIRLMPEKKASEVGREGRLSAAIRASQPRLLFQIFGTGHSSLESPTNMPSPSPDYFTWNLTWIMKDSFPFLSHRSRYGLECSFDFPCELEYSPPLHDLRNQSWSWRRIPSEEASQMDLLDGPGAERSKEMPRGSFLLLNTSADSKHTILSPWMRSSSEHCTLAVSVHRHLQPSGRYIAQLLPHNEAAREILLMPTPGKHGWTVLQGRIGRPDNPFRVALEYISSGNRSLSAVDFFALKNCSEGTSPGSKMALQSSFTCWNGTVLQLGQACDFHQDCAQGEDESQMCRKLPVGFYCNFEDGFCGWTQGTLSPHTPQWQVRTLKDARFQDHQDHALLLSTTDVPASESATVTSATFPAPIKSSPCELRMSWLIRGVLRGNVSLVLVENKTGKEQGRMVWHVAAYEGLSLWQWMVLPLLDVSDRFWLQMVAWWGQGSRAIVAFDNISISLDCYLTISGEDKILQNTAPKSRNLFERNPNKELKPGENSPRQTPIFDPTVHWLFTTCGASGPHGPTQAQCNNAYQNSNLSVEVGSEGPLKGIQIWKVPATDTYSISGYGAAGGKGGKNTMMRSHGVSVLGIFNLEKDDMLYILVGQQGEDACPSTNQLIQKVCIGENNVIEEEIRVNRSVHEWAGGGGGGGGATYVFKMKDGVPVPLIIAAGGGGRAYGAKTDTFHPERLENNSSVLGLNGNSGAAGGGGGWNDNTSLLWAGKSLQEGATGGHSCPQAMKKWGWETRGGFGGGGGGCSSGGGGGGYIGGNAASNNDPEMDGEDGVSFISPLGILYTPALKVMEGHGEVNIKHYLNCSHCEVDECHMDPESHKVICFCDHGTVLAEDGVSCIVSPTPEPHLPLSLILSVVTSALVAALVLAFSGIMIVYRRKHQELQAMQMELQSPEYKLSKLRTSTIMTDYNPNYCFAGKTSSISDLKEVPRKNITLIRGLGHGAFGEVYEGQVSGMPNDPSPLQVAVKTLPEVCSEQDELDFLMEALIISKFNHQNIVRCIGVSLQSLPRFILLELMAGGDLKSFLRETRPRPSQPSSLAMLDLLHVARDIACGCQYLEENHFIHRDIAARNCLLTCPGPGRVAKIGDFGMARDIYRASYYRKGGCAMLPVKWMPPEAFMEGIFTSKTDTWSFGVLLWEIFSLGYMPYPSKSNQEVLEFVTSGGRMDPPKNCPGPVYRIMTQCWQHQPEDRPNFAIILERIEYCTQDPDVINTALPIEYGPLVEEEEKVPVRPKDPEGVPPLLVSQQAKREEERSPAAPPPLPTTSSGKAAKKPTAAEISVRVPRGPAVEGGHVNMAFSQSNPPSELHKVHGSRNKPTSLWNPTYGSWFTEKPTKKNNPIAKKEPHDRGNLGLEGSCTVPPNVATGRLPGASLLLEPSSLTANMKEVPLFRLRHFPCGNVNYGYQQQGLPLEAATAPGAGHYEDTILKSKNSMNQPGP
Description: Inhibition of ALK-mediated STAT3 phosphorylation in EML4-ALK-positive human CCL185IG cells at 500 nM measured after 24 hrs in presence of pictilisib by Western blot analysis

[20] = target: ALK tyrosine kinase receptor (Homo sapiens) (UniProt Q9UM73); settings: 500 nM; remark: listed apart in the source
Description: Inhibition of ALK-mediated STAT3 phosphorylation in EML4-ALK-positive human CCL185IG cells at 500 nM measured after 24 hrs by Western blot analysis

[21] = Drug degradation in rat plasma assessed as compound hydrolysis with zero order rate constant; format: ADME, cell-free
[22] = Prodrug conversion in phosphate buffer at pH 6.8 and d6-DMSO (1:1) assessed as rate constant for release of active compound mimetics by kinetic time-course NMR method; format: ADME
[23] = Half life in phosphate buffer at pH 6.4 and d6-DMSO (1:1) by kinetic time-course NMR method; format: physicochemical; settings: phosphate buffer and d6-DMSO (1:1)
[24] = Half life in phosphate buffer at pH 7.4 and d6-DMSO (1:1) by kinetic time-course NMR method; format: physicochemical; settings: phosphate buffer and d6-DMSO (1:1)
[25] = Half life in phosphate buffer at pH 6.8 and d6-DMSO (1:1) by kinetic time-course NMR method; format: physicochemical; settings: phosphate buffer and d6-DMSO (1:1)
[26] = Prodrug conversion in phosphate buffer at pH 7.4 and d6-DMSO (1:1) assessed as rate constant for release of active compound mimetics by kinetic time-course NMR method; format: ADME
[27] = Prodrug conversion in phosphate buffer at pH 6.4 and d6-DMSO (1:1) assessed as rate constant for release of active compound mimetics by kinetic time-course NMR method; format: ADME

SMILES	half-life [13] [h]	half-life [14] [h]	K [15] [min⁻¹]	half-life [16] [h]	D50 [2] [µM]	D50 [3] [µM]	GI50 [5] [nM]	GI50 [9] [nM]	K [17] [h⁻¹]	K [18] [h⁻¹]	other results
CS(=O)(=O)N1CCN(Cc2cc3nc(-c4cccc5[nH]ncc45)nc(N4CCOCC4)c3s2)CC1 [PICTILISIB]	–	–	–	–	1.12	1.22	1180	1220	–	–	CI [1]: 0.55; CI [4]: 0.37; CI [6]: 0.95; CI [7]: 0.35; CI [8]: 0.24; CI [10]: 0.72; CI [11]: 0.52; CI [12]: 0.3
Cc1cc(Nc2ncc(Cl)c(Nc3ccccc3S(=O)(=O)C(C)C)n2)c(OC(C)C)cc1C1CCN(C(=O)OC(C)OC(=O)CC(N)CC(=O)n2ncc3c(-c4nc(N5CCOCC5)c5sc(CN6CCN(S(C)(=O)=O)CC6)cc5n4)cccc32)CC1 (configuration not stated)	12	1.15	0.01	7.6	–	–	–	–	0.058	0.091	–
Cc1cc(Nc2ncc(Cl)c(Nc3ccccc3S(=O)(=O)C(C)C)n2)c(OC(C)C)cc1C1CCNCC1 [CERITINIB]	–	–	–	–	0.57	0.85	565	845	–	–	inhibition [19]: Active; inhibition [20]: Active
CC(OC(=O)C[C@H](N)C(=O)n1ncc2cc(Br)ccc21)OC(=O)N1CCC(c2ccccc2)CC1 (some centres not stated)	–	–	–	–	–	–	–	–	–	–	K [22]: 0.84 h⁻¹; half-life [23]: 4.64 h; half-life [24]: 0.39 h; half-life [25]: 0.7 h; K [26]: 1.37 h⁻¹; K [27]: 0.22 h⁻¹

More lines, main results first:

half-life [13] [h]	half-life [14] [h]	K [15] [min⁻¹]	half-life [16] [h]	SMILES	D50 [2] [µM]	D50 [3] [µM]	GI50 [5] [nM]	GI50 [9] [nM]	K [17] [h⁻¹]	K [18] [h⁻¹]	other results
19.3	0.967	–	7.4	Cc1cc(Nc2ncc(Cl)c(Nc3ccccc3S(=O)(=O)C(C)C)n2)c(OC(C)C)cc1C1CCN(C(=O)OC(C)OC(=O)C[C@H](N)C(=O)n2ncc3c(-c4nc(N5CCOCC5)c5sc(CN6CCN(S(C)(=O)=O)CC6)cc5n4)cccc32)CC1 (some centres not stated)	–	–	–	–	0.036	0.094	K [21]: 0.069 µM/s
34.7	0.633	0.018	19.3	Cc1cc(Nc2ncc(Cl)c(Nc3ccccc3S(=O)(=O)C(C)C)n2)c(OC(C)C)cc1C1CCN(C(=O)OC(C)OC(=O)[C@@H](N)CC(=O)n2ncc3c(-c4nc(N5CCOCC5)c5sc(CN6CCN(S(C)(=O)=O)CC6)cc5n4)cccc32)CC1 (some centres not stated)	–	–	–	–	0.02	0.036	–
